What was measured:
Assay in all cases: relative viability (nuclei count vs DMSO), 5 days (fraction); higher = more cells survive
TGX 221 + Olaparib = compound: CC1=CN2C(=O)C=C(N=C2C(=C1)C(C)NC3=CC=CC=C3)N4CCOCC4 [TGX 221] + O=C(c1cc(Cc2n[nH]c(=O)c3ccccc23)ccc1F)N1CCN(C(=O)C2CC2)CC1 [Olaparib] (partner 8 µM)
Procedure, shortened: (§1)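 Each reported value is a median over duplicate plates. It expresses relative viability: treated-well nuclei count divided by vehicle-well nuclei count. Lung cancer cell lines in 1536-well plates were dosed by pin tool a day after seeding, alone with one drug or with a fixed anchor-drug dose plus five library-drug doses (not always all listed) in √10 steps, and nuclei were counted after 5 days.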

TGX 221 + OSI-027 = compound: CC1=CN2C(=O)C=C(N=C2C(=C1)C(C)NC3=CC=CC=C3)N4CCOCC4 [TGX 221] + COc1cccc2cc(-c3nc([C@H]4CC[C@H](C(=O)O)CC4)n4ncnc(N)c34)[nH]c12 [OSI-027] (partner 0.5 µM)
Procedure, shortened: as §1

Ricolinostat + Olaparib = compound: O=C(CCCCCCNC(=O)c1cnc(N(c2ccccc2)c2ccccc2)nc1)NO [Ricolinostat] + O=C(c1cc(Cc2n[nH]c(=O)c3ccccc23)ccc1F)N1CCN(C(=O)C2CC2)CC1 [Olaparib] (partner 8 µM)
Procedure, shortened: as §1

[1] = compound: O=C(CCCCCCNC(=O)c1cnc(N(c2ccccc2)c2ccccc2)nc1)NO [Ricolinostat] + CS(=O)(=O)N1CCN(Cc2cc3nc(-c4cccc5[nH]ncc45)nc(N4CCOCC4)c3s2)CC1 [Pictilisib] (partner 1 µM)
Procedure, shortened: as §1

| Cell Line | relative viability (TGX 221 + Olaparib; first compound 0.08 µM) | relative viability (TGX 221 + Olaparib; first compound 0.253 µM) | relative viability (TGX 221 + Olaparib; first compound 0.8 µM) | relative viability (TGX 221 + Olaparib; first compound 2.53 µM) | relative viability (TGX 221 + Olaparib; first compound 8 µM) | relative viability (TGX 221 + OSI-027; first compound 0.08 µM) | relative viability (TGX 221 + OSI-027; first compound 0.253 µM) | relative viability (TGX 221 + OSI-027; first compound 0.8 µM) | relative viability (TGX 221 + OSI-027; first compound 2.53 µM) | relative viability (TGX 221 + OSI-027; first compound 8 µM) | relative viability (Ricolinostat + Olaparib; first compound 0.08 µM) | relative viability (Ricolinostat + Olaparib; first compound 0.253 µM) | relative viability (Ricolinostat + Olaparib; first compound 0.8 µM) | relative viability (Ricolinostat + Olaparib; first compound 2.53 µM) | relative viability ([1]; first compound 0.08 µM) | relative viability ([1]; first compound 0.8 µM) | relative viability ([1]; first compound 2.53 µM) | relative viability ([1]; first compound 0.253 µM) |
| --- | --- | --- | --- | --- | --- | --- | --- | --- | --- | --- | --- | --- | --- | --- | --- | --- | --- | --- |
| NCI-H1755 | 0.853 | 0.843 | 0.829 | 0.738 | 0.68 | 0.685 | 0.728 | 0.605 | 0.657 | 0.697 | 0.826 | 0.809 | 0.814 | 0.739 | 0.278 | 0.402 | 0.312 | – |
| NCI-H838 | 0.758 | 0.717 | 0.767 | 0.634 | 0.553 | 0.399 | 0.326 | 0.326 | 0.365 | 0.355 | 0.802 | 0.788 | 0.787 | 0.404 | 0.326 | 0.613 | 0.531 | 0.563 |
| NCI-H322M | 0.699 | 0.701 | 0.876 | 0.716 | 0.681 | 0.541 | 0.515 | 0.551 | 0.507 | 0.567 | 0.664 | 0.879 | 0.807 | 0.907 | – | 0.561 | 0.568 | 0.558 |
| NCI-H441 | 0.578 | 0.571 | 0.515 | 0.524 | 0.589 | 0.58 | 0.698 | 0.576 | 0.728 | 0.665 | 0.575 | 0.471 | 0.478 | 0.455 | 0.42 | 0.426 | 0.453 | 0.55 |
| EMC-BAC-2 | 0.463 | 0.453 | 0.526 | 0.418 | 0.472 | 0.376 | 0.443 | 0.348 | 0.359 | 0.366 | 0.52 | 0.442 | 0.393 | 0.347 | 0.433 | 0.558 | 0.442 | 0.578 |
| HARA | 0.658 | 0.917 | 0.868 | 0.629 | 0.711 | 0.447 | 0.493 | 0.526 | 0.501 | 0.471 | 0.855 | 0.889 | 0.29 | 0.482 | 0.208 | 0.503 | 0.203 | 0.481 |
| NCI-H727 | 0.681 | 0.732 | 0.545 | 0.679 | 0.745 | 0.556 | 0.478 | 0.693 | 0.529 | 0.566 | 0.827 | 0.624 | 0.75 | 0.611 | 0.305 | 0.623 | 0.291 | 0.409 |
| NCI-H1944 | – | 0.364 | 0.409 | 0.371 | 0.379 | 0.377 | 0.39 | 0.397 | 0.409 | 0.388 | 0.404 | 0.369 | 0.308 | 0.296 | 0.285 | 0.321 | 0.289 | 0.347 |
| COR-L 105 | 0.649 | 0.696 | 0.712 | 0.584 | 0.557 | 0.793 | 0.612 | 0.759 | 1.03 | 0.627 | 0.61 | 0.686 | 0.797 | 0.962 | 0.367 | 0.485 | 0.279 | 0.412 |
| 201T | 0.837 | 0.834 | 0.821 | 0.834 | 0.777 | 0.547 | 0.726 | 1.08 | 0.708 | 0.696 | 0.785 | 0.845 | 0.891 | 0.806 | 0.586 | 0.727 | 0.606 | 0.748 |
| NCI-H460 | 0.4 | 0.438 | 0.389 | 0.405 | 0.38 | 0.666 | 0.566 | 0.713 | 0.56 | 0.504 | 0.362 | 0.341 | 0.377 | 0.159 | 0.332 | 0.308 | 0.269 | 0.393 |
| LOU-NH91 | 0.95 | 0.904 | 0.892 | 0.951 | 0.783 | 0.711 | 0.72 | 0.727 | 0.745 | 0.701 | – | 0.883 | 0.905 | 0.858 | – | 0.492 | 0.528 | 0.557 |
| NCI-H2170 | 0.625 | 0.522 | 0.625 | 0.526 | 0.608 | 0.717 | 0.737 | 0.681 | 0.66 | 0.712 | 0.569 | 0.507 | 0.625 | 0.539 | 0.27 | 0.355 | 0.287 | 0.315 |
| LU99A | 0.251 | 0.258 | 0.297 | 0.251 | 0.249 | 0.275 | 0.313 | 0.328 | 0.346 | 0.293 | 0.281 | 0.255 | 0.206 | 0.175 | 0.299 | 0.258 | 0.219 | 0.262 |
| ChaGo-K-1 | 0.399 | 0.387 | 0.374 | 0.359 | 0.426 | 0.529 | 0.547 | 0.581 | 0.474 | 0.64 | 0.464 | 0.395 | 0.364 | 0.324 | 0.916 | 0.616 | 0.625 | 0.676 |
| NCI-H358 | 0.626 | 0.565 | 0.705 | 0.545 | 0.582 | 0.716 | 0.719 | 0.756 | 0.739 | 0.583 | 0.444 | 0.57 | 0.61 | 0.652 | 0.213 | 0.463 | 0.539 | 0.495 |
| SW 1573 | 0.48 | 0.422 | 0.511 | 0.406 | 0.479 | 0.511 | 0.569 | 0.525 | 0.513 | 0.494 | 0.436 | 0.508 | 0.534 | 0.404 | 0.454 | 0.542 | 0.475 | 0.504 |
| LK-2 | 0.65 | 0.752 | 0.551 | 0.632 | 0.862 | 0.212 | 0.246 | 0.216 | 0.225 | 0.237 | 0.623 | 0.687 | 0.691 | 0.575 | – | 0.48 | 0.483 | 0.497 |
